# Test: Stability of cannabinoid compounds and Vitamin E components in Beverage 1 (AB White) by LCMSMS
# Assay type: physicochemical
# Conditions: for Stability of Plant-Derived Cannabinoid Compounds in AB White, 21-25° C.: AB White stored at 21-25° C.
# [1] = AB White stored at 8° C., 570 days
smiles,measurement,setting,value
"CCCCCc1cc(O)c2c(c1)OC(C)(C)[C@@H]1CCC(C)=C[C@@H]21 [D9 THC, delta-9-tetrahydrocannabinol, reference compound]","Stability of Plant-Derived Cannabinoid Compounds in AB White, 8° C.","AB White stored at 8° C., 0 days",12.2 µg/mL
same,"Stability of Plant-Derived Cannabinoid Compounds in AB White, 8° C.","AB White stored at 8° C., 1 days",12.20 µg/mL
same,"Stability of Plant-Derived Cannabinoid Compounds in AB White, 8° C.","AB White stored at 8° C., 2 days",11.91 µg/mL
same,"Stability of Plant-Derived Cannabinoid Compounds in AB White, 8° C.","AB White stored at 8° C., 3 days",12.25 µg/mL
same,"Stability of Plant-Derived Cannabinoid Compounds in AB White, 8° C.","AB White stored at 8° C., 5 days",12.11 µg/mL
same,"Stability of Plant-Derived Cannabinoid Compounds in AB White, 8° C.","AB White stored at 8° C., 8 days",11.83 µg/mL
same,"Stability of Plant-Derived Cannabinoid Compounds in AB White, 8° C.","AB White stored at 8° C., 9 days",12.14 µg/mL
same,"Stability of Plant-Derived Cannabinoid Compounds in AB White, 8° C.","AB White stored at 8° C., 10 days",12.07 µg/mL
same,"Stability of Plant-Derived Cannabinoid Compounds in AB White, 8° C.","AB White stored at 8° C., 11 days",11.83 µg/mL
same,"Stability of Plant-Derived Cannabinoid Compounds in AB White, 8° C.","AB White stored at 8° C., 12 days",11.88 µg/mL
same,"Stability of Plant-Derived Cannabinoid Compounds in AB White, 8° C.","AB White stored at 8° C., 15 days",12.08 µg/mL
same,"Stability of Plant-Derived Cannabinoid Compounds in AB White, 8° C.","AB White stored at 8° C., 16 days",12.18 µg/mL
same,"Stability of Plant-Derived Cannabinoid Compounds in AB White, 8° C.","AB White stored at 8° C., 17 days",12.05 µg/mL
same,"Stability of Plant-Derived Cannabinoid Compounds in AB White, 8° C.","AB White stored at 8° C., 18 days",12.00 µg/mL
same,"Stability of Plant-Derived Cannabinoid Compounds in AB White, 8° C.","AB White stored at 8° C., 19 days",12.11 µg/mL
same,"Stability of Plant-Derived Cannabinoid Compounds in AB White, 8° C.","AB White stored at 8° C., 22 days",11.97 µg/mL
same,"Stability of Plant-Derived Cannabinoid Compounds in AB White, 8° C.","AB White stored at 8° C., 23 days",12.03 µg/mL
same,"Stability of Plant-Derived Cannabinoid Compounds in AB White, 8° C.","AB White stored at 8° C., 24 days",11.87 µg/mL
same,"Stability of Plant-Derived Cannabinoid Compounds in AB White, 8° C.","AB White stored at 8° C., 25 days",11.99 µg/mL
same,"Stability of Plant-Derived Cannabinoid Compounds in AB White, 8° C.","AB White stored at 8° C., 26 days",11.97 µg/mL
same,"Stability of Plant-Derived Cannabinoid Compounds in AB White, 8° C.","AB White stored at 8° C., 29 days",12.25 µg/mL
same,"Stability of Plant-Derived Cannabinoid Compounds in AB White, 8° C.","AB White stored at 8° C., 30 days",12.05 µg/mL
same,"Stability of Plant-Derived Cannabinoid Compounds in AB White, 8° C.","AB White stored at 8° C., 60 days",11.77 µg/mL
same,"Stability of Plant-Derived Cannabinoid Compounds in AB White, 8° C.","AB White stored at 8° C., 90 days",11.92 µg/mL
same,"Stability of Plant-Derived Cannabinoid Compounds in AB White, 8° C.","AB White stored at 8° C., 120 days",11.79 µg/mL
same,"Stability of Plant-Derived Cannabinoid Compounds in AB White, 8° C.","AB White stored at 8° C., 150 days",12.07 µg/mL
same,"Stability of Plant-Derived Cannabinoid Compounds in AB White, 8° C.","AB White stored at 8° C., 180 days",11.66 µg/mL
same,"Stability of Plant-Derived Cannabinoid Compounds in AB White, 8° C.","AB White stored at 8° C., 210 days",11.79 µg/mL
same,"Stability of Plant-Derived Cannabinoid Compounds in AB White, 8° C.","AB White stored at 8° C., 240 days",11.70 µg/mL
same,"Stability of Plant-Derived Cannabinoid Compounds in AB White, 8° C.","AB White stored at 8° C., 270 days",11.98 µg/mL
same,"Stability of Plant-Derived Cannabinoid Compounds in AB White, 8° C.","AB White stored at 8° C., 300 days",11.70 µg/mL
same,"Stability of Plant-Derived Cannabinoid Compounds in AB White, 8° C.","AB White stored at 8° C., 330 days",11.68 µg/mL
same,"Stability of Plant-Derived Cannabinoid Compounds in AB White, 8° C.","AB White stored at 8° C., 360 days",11.88 µg/mL
same,"Stability of Plant-Derived Cannabinoid Compounds in AB White, 8° C.","AB White stored at 8° C., 390 days",11.85 µg/mL
same,"Stability of Plant-Derived Cannabinoid Compounds in AB White, 8° C.","AB White stored at 8° C., 420 days",11.77 µg/mL
same,"Stability of Plant-Derived Cannabinoid Compounds in AB White, 8° C.","AB White stored at 8° C., 450 days",11.80 µg/mL
same,"Stability of Plant-Derived Cannabinoid Compounds in AB White, 8° C.","AB White stored at 8° C., 480 days",11.60 µg/mL
same,"Stability of Plant-Derived Cannabinoid Compounds in AB White, 8° C.","AB White stored at 8° C., 510 days",11.33 µg/mL
same,"Stability of Plant-Derived Cannabinoid Compounds in AB White, 8° C.","AB White stored at 8° C., 540 days",11.27 µg/mL
same,"Stability of Plant-Derived Cannabinoid Compounds in AB White, 8° C.",[1],11.21 µg/mL
same,stability over the entire period (in words),[1],high degree of stability
same,"Stability of Plant-Derived Cannabinoid Compounds in AB White, 21-25° C.",0 days,12.2 µg/mL
same,"Stability of Plant-Derived Cannabinoid Compounds in AB White, 21-25° C.",1 days,11.8 µg/mL
same,"Stability of Plant-Derived Cannabinoid Compounds in AB White, 21-25° C.",2 days,12.0 µg/mL
same,"Stability of Plant-Derived Cannabinoid Compounds in AB White, 21-25° C.",3 days,11.9 µg/mL
same,"Stability of Plant-Derived Cannabinoid Compounds in AB White, 21-25° C.",5 days,12.1 µg/mL
same,"Stability of Plant-Derived Cannabinoid Compounds in AB White, 21-25° C.",8 days,12.3 µg/mL
same,"Stability of Plant-Derived Cannabinoid Compounds in AB White, 21-25° C.",9 days,11.8 µg/mL
same,"Stability of Plant-Derived Cannabinoid Compounds in AB White, 21-25° C.",10 days,11.7 µg/mL
same,"Stability of Plant-Derived Cannabinoid Compounds in AB White, 21-25° C.",11 days,12.1 µg/mL
same,"Stability of Plant-Derived Cannabinoid Compounds in AB White, 21-25° C.",12 days,11.9 µg/mL
same,"Stability of Plant-Derived Cannabinoid Compounds in AB White, 21-25° C.",15 days,12.1 µg/mL
same,"Stability of Plant-Derived Cannabinoid Compounds in AB White, 21-25° C.",16 days,12.1 µg/mL
same,"Stability of Plant-Derived Cannabinoid Compounds in AB White, 21-25° C.",17 days,11.9 µg/mL
same,"Stability of Plant-Derived Cannabinoid Compounds in AB White, 21-25° C.",18 days,11.8 µg/mL
same,"Stability of Plant-Derived Cannabinoid Compounds in AB White, 21-25° C.",19 days,12.3 µg/mL
same,"Stability of Plant-Derived Cannabinoid Compounds in AB White, 21-25° C.",22 days,11.9 µg/mL
same,"Stability of Plant-Derived Cannabinoid Compounds in AB White, 21-25° C.",23 days,12.0 µg/mL
same,"Stability of Plant-Derived Cannabinoid Compounds in AB White, 21-25° C.",24 days,12.1 µg/mL
same,"Stability of Plant-Derived Cannabinoid Compounds in AB White, 21-25° C.",25 days,12.3 µg/mL
same,"Stability of Plant-Derived Cannabinoid Compounds in AB White, 21-25° C.",26 days,12.1 µg/mL

# From patent US20260130395A1, “Water Dispersible Botanical Compositions” (Aquila Black Limited, priority 2021, published 2026)
